Reference: PMC2194712, “Structure of Arabidopsis thaliana 5-methylthioribose kinase reveals a more occluded active site than its bacterial homolog” (BMC Structural Biology, 2007)

How the values were obtained:
A. thaliana MTR kinase = biological target: T1, A. thaliana MTR kinase (Arabidopsis thaliana, UniProt Q9C6D2); assay: X-ray crystallography, […] Å, co-crystallization; type: binding; details: crystal soaked at pH 6.5
T1 construct: gene MTK; full length, 420 residues; homodimer
T1 sequence (Q9C6D2 1-420): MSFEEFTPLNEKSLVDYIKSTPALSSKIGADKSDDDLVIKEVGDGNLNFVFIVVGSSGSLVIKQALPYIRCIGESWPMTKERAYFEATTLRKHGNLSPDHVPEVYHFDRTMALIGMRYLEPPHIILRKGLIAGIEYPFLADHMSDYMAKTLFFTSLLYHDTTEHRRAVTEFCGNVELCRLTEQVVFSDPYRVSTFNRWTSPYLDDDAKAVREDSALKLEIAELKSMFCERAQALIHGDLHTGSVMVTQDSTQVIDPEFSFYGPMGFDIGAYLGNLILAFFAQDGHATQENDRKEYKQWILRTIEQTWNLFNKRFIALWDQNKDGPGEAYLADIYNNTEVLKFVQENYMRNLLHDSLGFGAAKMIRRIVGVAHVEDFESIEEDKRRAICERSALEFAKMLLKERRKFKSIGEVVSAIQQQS

[1] = biological target: the molecule itself; assay: SEC; size exclusion chromatography of A. thaliana MTR kinase, data not shown; conditions not given

With Nc1ncnc2c1ncn2[C@@H]1O[C@H](COP(=O)(O)OP(=O)(O)O)[C@@H](O)[C@H]1O [ADP] the “X-ray crystallography, 1.9 Å, co-crystallization” value (A. thaliana MTR kinase; nucleotide site, from ATPγS hydrolysed during co-crystallization, two Mg(II), MTR bound) was “coordinates of the A. thaliana MTR kinase in complex with ADP and MTR”.

CSC[C@H]1OC(O)[C@H](O)[C@@H]1O (stereo partly drawn) [MTR] was tested, and the “X-ray crystallography, 1.9 Å, co-crystallization” value (A. thaliana MTR kinase; active site, co-crystallized with ATPγS and MTR, Mg(II) and ADP bound, alpha anomer) was “coordinates of the A. thaliana MTR kinase in complex with ADP and MTR”.

B1: Arabidopsis thaliana 5-methylthioribose kinase (enzyme, UniProt Q9C6D2 1-420, looked up)
chain: MSFEEFTPLNEKSLVDYIKSTPALSSKIGADKSDDDLVIKEVGDGNLNFVFIVVGSSGSLVIKQALPYIRCIGESWPMTKERAYFEATTLRKHGNLSPDHVPEVYHFDRTMALIGMRYLEPPHIILRKGLIAGIEYPFLADHMSDYMAKTLFFTSLLYHDTTEHRRAVTEFCGNVELCRLTEQVVFSDPYRVSTFNRWTSPYLDDDAKAVREDSALKLEIAELKSMFCERAQALIHGDLHTGSVMVTQDSTQVIDPEFSFYGPMGFDIGAYLGNLILAFFAQDGHATQENDRKEYKQWILRTIEQTWNLFNKRFIALWDQNKDGPGEAYLADIYNNTEVLKFVQENYMRNLLHDSLGFGAAKMIRRIVGVAHVEDFESIEEDKRRAICERSALEFAKMLLKERRKFKSIGEVVSAIQQQS
notes: 5-methylthioribose (MTR) kinase of Arabidopsis thaliana, 420 residues; residues 1 and 420 are named as part of the crystallised protein (not modelled); also called A. thaliana MTR kinase; MTR kinase
In the case of B1, the “stoichiometry N” value [1] is reported as 2.
